Assay results: patent US7531356B2, “Promoter sequences for corticotropin releasing-factor receptor CRF2α and method of identifying agents that alter the activity of the promoter sequences” (Wisconsin Alumni Research Foundation, priority 2000, dated 2009)
Ends that are not written are not given here.

Columns and labels:
[1] = system: full-length CRF2α receptor promoter (−3898 construct); assay: Luciferase reporter expression from the full-length (−3898) CRF2α receptor promoter construct in transfected A7R5 cultures; assay type: cell-based, human; conditions: for effect of antagonist on CRF or urocortin induced reduction in expression from the full length promoter: antagonist 1 μM plus CRF or urocortin 1 μM; for change in expression from the −3898 construct compared to untreated control cultures: agonist 1 μM alone, p<0.001
Experimental: (§1) In one embodiment, the present invention is a transfected cell line. One preferred method of creating such a cell line is described as follows: The constructs described above containing the human or rat promoter fragments placed upstream of the firefly luciferase gene are used to transfect immortalized cell lines. The constructs are transfected into CHO-K1 and A7R5 cell lines using lipofectamine 2000 (Life Technologies, Rockville, Md.). […] Both cell lines can be maintained at 37° C. with 5% CO2 in DMEM supplemented with 10% fetal bovine serum. Primary cultures of the central nervous system, as well as additional immortalized cell lines, are also appropriate for these transfections. To control for transfection efficiency, the cells are also co-transfected with the pRL-TK vector (Promega, Madison, Wis.). The pRL-TK vector contains the Renilla luciferase gene downstream of the herpes simplex virus thymidine kinase promoter, a promoter which provides low to moderate levels of expression. Cell lysates are assayed for total protein using the BCA assay (Pierce, Rockford, Ill.) to standardize for the protein extraction. The level of reporter gene expression from a standardized amount of cell extract is quantified by measuring luciferase activity using a luminometer (EG&G Wallac, Gaithersburg, Md.) and the dual-luciferase reporter assay system (Promega, Madison, Wis.). Firefly luciferase activity reflects CRF2α receptor promoter activity and Renilla luciferase activity is used to normalize data between experiments.
Using a similar experimental paradigm, we treated A7R5 cultures to determine what agents may alter expression from the CRF2α promoter. In addition to treating the cultures with CRF and urocortin (1 μM each), A7R5 cultures also were treated with either of the antagonists alone D-Phe or DMP696 (1 μM each), CRF plus D-Phe (1 μM each), CRF plus DMP696 (1 μM each), urocortin plus D-Phe (1 μM each), and with urocortin plus DMP696 (1 μM each). D-Phe is a non-selective CRF receptor antagonist, blocking both CRF1 and CRF2 receptors, whereas DMP696 is specific to CRF1 receptors. A7R5 cultures are known to express CRF2 receptors and should be a highly appropriate cell type to monitor CRF2α receptor expression.
In a separate experiment the effects of forskolin and dexamethasone were compared to DMSO control A7R5 cultures. […] These findings are consistent with those seen in the CHO-K1 cultures.

[2] = system: full-length CRF2α receptor promoter (−3898 construct); assay: Luciferase reporter expression from the full-length (−3898) CRF2α receptor promoter construct in transfected CHO-K1 cultures; assay type: cell-based, human; conditions: CHO-K1, −3898 construct, forskolin 10 μM without IBMX, 24 hours; for change in expression from the full-length CRF2α promoter compared with control cultures: CRF, urocortin, dexamethasone 1 μM, vs untreated (CRF, urocortin) or DMSO control
Experimental: as §1
A stated goal for the constructs is the ability to identify agents that can alter expression of the CRF2α gene. […] Using methods previously described in this application, CHO-K1 cultures were transfected with the −3898 construct and the pRL-TK internal control construct. These cultures were then treated with either CRF (1 μM), urocortin (1 μM), dexamethasone (1 μM), forskolin (10 μM), or the appropriate control at the time of transfection. […]

Compound	effect of antagonist on CRF or urocortin induced reduction in expression from the full length promoter [1]	mean expression (firefly luciferase activity normalized to Renilla luciferase) ([2]; DMSO control mean 0.411±0.004, p<0.001)	change in expression from the full-length CRF2α promoter compared with control cultures [2]	change in expression from the −3898 construct compared to untreated control cultures [1]
D-Phe	brought expression from the full length promoter back to the levels seen in the untreated controls	–	–	–
COCC(COC)Nc1nc(C)nc2c(-c3ccc(Cl)cc3Cl)c(C)nn12 [DMP696]	did not affect either the CRF or urocortin induced reduction in expression	–	–	–
C=C[C@@]1(C)CC(=O)[C@]2(O)[C@@]3(C)[C@@H](O)CCC(C)(C)[C@@H]3[C@H](O)[C@H](OC(C)=O)[C@@]2(C)O1 [forskolin]	–	0.302±0.012	–	–
CRF: hormone and neurotransmitter; ligand for the CRF receptors	–	–	did not significantly change expression	significantly decrease expression
urocortin: neurotransmitter similar to CRF; ligand for the CRF receptors (DNPSLSIDLTFHLLRTLLELARTQSQRERAEQNRIIFDSV; ends and bridges not checked; UniProt P55089 83-122, looked up)	–	–	did not significantly change expression	significantly decrease expression
